Laboratory results as given in patent US9006487B2, “Amine-containing lipids and uses thereof” (Massachusetts Institute of Technology, priority 2005, dated 2015).

Key:
[1] = tested on: renilla and firefly luciferases; assay: siRNA delivery: reporter-protein (renilla luciferase) knockdown relative to Lipofectamine 2000, firefly luciferase as viability control; assay type: cell-based; conditions: 50 ng of siRNA per well
Procedure: Reporter-protein knockdown achieved by the top transfecting lipids relative to Lipofectamine™ 2000 (where negative values indicate improved knockdown). The assay accounts for toxicity, monitoring expression of both renilla and firefly luciferases, where the latter serves as viability control. For each lipid, 50 ng of siRNA was added per well at specific lipid/RNA w/w ratios (from top to bottom: 2.5, 5, 10, 15).

[2] = tested on: cos-7 cells; assay: DNA transfection: luciferase expression relative to Lipofectamine 2000; assay type: cell-based; conditions: for Luciferase expression as a percentage of that achieved using Lipofectamine 2000: 300 ng Luciferase DNA per well; for Luciferase expression as a percentage of that achieved using Lipofectamine 2000 / % of the luciferase activity obtained from the use of Lipofectamine 2000: luciferase assay after 48 hours; for luciferase expression (second part of table, values relative to LIPO2000): 300 ng of DNA per well; for % of the luciferase activity obtained from the use of Lipofectamine 2000: 300 ng DNA per well
Summary of the method: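 Lipid/DNA complexes, 300 ng luciferase DNA per well at 2.5-25 w/w lipid:DNA, were formed in sodium acetate/Optimem and added to overnight-seeded cos-7 cells. Luciferase was measured by Bright-Glo luminescence after 48 hours and quantified against an enzyme standard curve. Values are expressed as % of Lipofectamine 2000 at 2.5 w/w.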

SMILES	Reporter-protein knockdown relative to Lipofectamine 2000 (negative values indicate improved knockdown) ([1]; lipid/RNA 2.5 w/w)	Reporter-protein knockdown relative to Lipofectamine 2000 (negative values indicate improved knockdown) ([1]; lipid/RNA 5 w/w)	Reporter-protein knockdown relative to Lipofectamine 2000 (negative values indicate improved knockdown) ([1]; lipid/RNA 10 w/w)	Reporter-protein knockdown relative to Lipofectamine 2000 (negative values indicate improved knockdown) ([1]; lipid/RNA 15 w/w)	Luciferase expression as a percentage of that achieved using Lipofectamine 2000 ([2]; lipid/DNA 2.5 w/w) [%]	luciferase expression (second part of table, values relative to LIPO2000) ([2]; lipid/DNA 2.5 w/w)	Luciferase expression as a percentage of that achieved using Lipofectamine 2000 ([2]; lipid/DNA 5 w/w) [%]	luciferase expression (second part of table, values relative to LIPO2000) ([2]; lipid/DNA 5 w/w)	Luciferase expression as a percentage of that achieved using Lipofectamine 2000 ([2]; lipid/DNA 10 w/w) [%]	luciferase expression (second part of table, values relative to LIPO2000) ([2]; lipid/DNA 10 w/w)	Luciferase expression as a percentage of that achieved using Lipofectamine 2000 ([2]; lipid/DNA 15 w/w) [%]	luciferase expression (second part of table, values relative to LIPO2000) ([2]; lipid/DNA 15 w/w)	Luciferase expression as a percentage of that achieved using Lipofectamine 2000 ([2]; lipid/DNA 20 w/w) [%]	luciferase expression (second part of table, values relative to LIPO2000) ([2]; lipid/DNA 20 w/w)	Luciferase expression as a percentage of that achieved using Lipofectamine 2000 ([2]; lipid/DNA 25 w/w) [%]	luciferase expression (second part of table, values relative to LIPO2000) ([2]; lipid/DNA 25 w/w)	also measured
CCCCCCCCCCCCOC(=O)CCN(CCOCCO)CCC(=O)OCCCCCCCCCCCC [LD31]	15.3558	−7.897	−15.5821	−16.8831	44.2	44.2	38.7	38.7	18.8	18.8	11.3	11.3	42.8	42.8	174.1	174.1	–
CCCCCCCCCCCCCOC(=O)CCN(CCCN(CCO)CCO)CCC(=O)OCCCCCCCCCCCCC [LE87]	5.504	−6.923	−8.533	−15.2929	–	–	–	–	–	–	–	–	–	–	–	–	% of the luciferase activity obtained from the use of Lipofectamine 2000 ([2]; 2.5 w/w lipid to DNA): 10.5%; % of the luciferase activity obtained from the use of Lipofectamine 2000 ([2]; 5 w/w lipid to DNA): 9.0%; % of the luciferase activity obtained from the use of Lipofectamine 2000 ([2]; 10 w/w lipid to DNA): 38.4%; % of the luciferase activity obtained from the use of Lipofectamine 2000 ([2]; 15 w/w lipid to DNA): 4.3%; % of the luciferase activity obtained from the use of Lipofectamine 2000 ([2]; 20 w/w lipid to DNA): 0.0%; % of the luciferase activity obtained from the use of Lipofectamine 2000 ([2]; 25 w/w lipid to DNA): 0.0%
CCCCCCCCCCCCCCOC(=O)CCN(CCOCCO)CCC(=O)OCCCCCCCCCCCCCC [LF31]	50.09	11.94	−0.8252	−10.5366	64.1	64.1	78.7	78.7	13.4	13.4	69.5	69.5	97.3	97.3	266.8	266.8	–
CCCCCCCCCCCCCCCOC(=O)CCN(CCOCCO)CCC(=O)OCCCCCCCCCCCCCCC [LG31]	41	21.06	−2.714	−5.764	19.6	19.6	27.6	27.6	34.0	34.0	8.5	8.5	14.3	14.3	94.0	94.0	–
CCCCCCCCCCCCCCCOC(=O)CCN(CCCCCO)CCC(=O)OCCCCCCCCCCCCCCC [LG32]	58.1	41.51	44.71	−13.6483	0.2	–	10.2	–	1.0	–	0.7	–	0.4	–	0.7	–	–
CCCCCCCCCCCCCCCOC(=O)CCN(CCC(=O)OCCCCCCCCCCCCCCC)CCC1CCCN1C (centres unmarked) [LG77]	71.01	−0.05414	−7.721	−21.3897	0.0	–	0.0	–	–	–	–	–	0.0	–	0.0	–	% of the luciferase activity obtained from the use of Lipofectamine 2000 ([2]; 10 w/w lipid to DNA): 43.5%; % of the luciferase activity obtained from the use of Lipofectamine 2000 ([2]; 15 w/w lipid to DNA): 34.0%
CCCCCCCCCCCCCCCOC(=O)CCN(CCCN(C)C)CCC(=O)OCCCCCCCCCCCCCCC [LG80]	2.007	−9.09	−15.9409	−21.0263	2.2	–	11.9	–	19.8	–	31.3	–	21.9	–	17.4	–	–
CCCCCCCCCCCCCCCOC(=O)CCN(CCO)CCN(CCC(=O)OCCCCCCCCCCCCCCC)CCC(=O)OCCCCCCCCCCCCCCC [LG109]	55.7409	43.9	−5.231	−11.1255	16.3	–	36.0	–	23.4	–	37.9	–	25.7	–	34.5	–	–
CCCCCCCCCCCCNC(=O)CCN(CCCN(CCC(=O)NCCCCCCCCCCCC)CCC(=O)NCCCCCCCCCCCC)CCC(=O)NCCCCCCCCCCCC [ND100]	10.88	−7.546	−21.4945	−8.3303	–	45.7	–	48.0	–	20.8	–	2.7	–	–	–	–	luciferase expression, second set of columns (replicate set of data) ([2]; 1st column, no head printed (2.5 w/w by the raw values)): 62.6; luciferase expression, second set of columns (replicate set of data) ([2]; 2nd column, no head printed (5 w/w by the raw values)): 37.4; luciferase expression, second set of columns (replicate set of data) ([2]; 3rd column, no head printed (10 w/w by the raw values)): 2.5; luciferase expression, second set of columns (replicate set of data) ([2]; 4th column, no head printed (15 w/w by the raw values)): 0.6
